Experiments:
Conditions in all cases: 0.0630 kg/ha
[1] = tested on: Corn, Field, Zea mays; test: Postemergence herbicidal evaluation, ZEAMX; type: in vivo, L.
Protocol: (§1) In the tests, seedling plants are grown in jiffy flats for about two weeks. The test compounds are dispersed in 50/50 acetone/water mixtures containing 0.5% TWEEN®20, a polyoxyethylene sorbitan monolaurate surfactant of Atlas Chemical Industries, in sufficient quantities to provide the equivalent of about 0.0157 kg to 0.500 kg per hectare of active compound when applied to the plants through a spray nozzle operating at 40 psi for a predetermined time. After spraying, the plants are placed on greenhouse benches and are cared for in accordance with conventional greenhouse procedures. From four to five weeks after treatment, the seedling plants are examined and rated according to the rating system set forth below. Where more than one test is involved for a given compound, the data are averaged.
(§2) Results of herbicide evaluation are expressed on a rating scale (0-9). The scale is based upon a visual observation of plant stand, vigor, malformation, size, chlorosis and overall plant appearance as compared with a control.

[2] = tested on: Sicklepod, Cassia obtusifolia; test: Postemergence herbicidal evaluation, CASOB; type: in vivo, L.
Protocol: as §1, §2

[3] = tested on: Lambsquarters, Common, Chenopodium album; test: Postemergence herbicidal evaluation, CHEAL; type: in vivo, L.
Protocol: as §1, §2

[4] = tested on: Wheat, Winter, cv Riband, Triticum aestivum; test: Postemergence herbicidal evaluation, TRZAWR; type: in vivo
Protocol: as §1, §2

[5] = tested on: Morningglory, Ivyleaf, Ipomoea hederacea; test: Postemergence herbicidal evaluation, IPOHE; type: in vivo, (L.) Jacq.
Protocol: as §1, §2

[6] = tested on: Galium, Galium aparine; test: Postemergence herbicidal evaluation, GALAP; type: in vivo
Protocol: as §1, §2

[7] = tested on: Soybean, Williams, Glycine max; test: Postemergence herbicidal evaluation, GLXMAW; type: in vivo, (L.) Merr. cv Williams
Protocol: as §1, §2

[8] = tested on: Foxtail, Green, Setaria viridis; test: Postemergence herbicidal evaluation, SETVI; type: in vivo, (L.) Beau
Protocol: as §1, §2

[9] = tested on: Ragweed, Common, Ambrosia artemisifolia; test: Postemergence herbicidal evaluation, AMBEL; type: in vivo, L.
Protocol: as §1, §2

[10] = tested on: Barnyardgrass, Echinochloa crus-galli; test: Postemergence herbicidal evaluation, ECHCG; type: in vivo, (L.) Beau
Protocol: as §1, §2

[11] = tested on: Velvetleaf, Abutilon theophrasti; test: Postemergence herbicidal evaluation, ABUTH; type: in vivo, Medic.
Protocol: as §1, §2

[12] = tested on: Rice, Tebonnet, Oryza sativa; test: Postemergence herbicidal evaluation, ORYSAT; type: in vivo, (L.) Tebonnet
Protocol: as §1, §2

C#CCOC(=O)C(C)Oc1ccc(C)cc1-c1nsc2ccc(-n3c(=O)cc(C(F)(F)F)n(C)c3=O)cc12 (stereo not drawn) [Compound 77, 2-Propynyl 2-{{2-{5-[3,6-dihydro-3-methyl-2,6-dioxo-4-(trifluoromethyl)-1(2H)-pyrimidinyl]-1,2-benzisothiazol-3-yl}-p-tolyl}oxy}propionate]
herbicide rating (0-9) [1]: 8.0
herbicide rating (0-9) [2]: 4.0
herbicide rating (0-9) [3]: 9.0
herbicide rating (0-9) [4]: 9.0
herbicide rating (0-9) [5]: 9.0
herbicide rating (0-9) [6]: 9.0
herbicide rating (0-9) [7]: 7.0
herbicide rating (0-9) [8]: 9.0
herbicide rating (0-9) [9]: 9.0
herbicide rating (0-9) [10]: 9.0
herbicide rating (0-9) [11]: 9.0
herbicide rating (0-9) [12]: 9.0

C=CCOC(=O)C(C)Oc1ccc(C)cc1-c1nsc2ccc(-n3c(=O)cc(C(F)(F)F)n(C)c3=O)cc12 (stereo not drawn) [Compound 78, Allyl 2-{{2-{5-[3,6-dihydro-3-methyl-2,6-dioxo-4-(trifluoromethyl)-1(2H)-pyrimidinyl]-1,2-benzisothiazol-3-yl}-p-tolyl}oxy}propionate]
herbicide rating (0-9) [1]: 7.5
herbicide rating (0-9) [2]: 3.0
herbicide rating (0-9) [3]: 9.0
herbicide rating (0-9) [4]: 9.0
herbicide rating (0-9) [5]: 9.0
herbicide rating (0-9) [6]: 7.0
herbicide rating (0-9) [7]: 6.5
herbicide rating (0-9) [8]: 9.0
herbicide rating (0-9) [9]: 9.0
herbicide rating (0-9) [10]: 9.0
herbicide rating (0-9) [11]: 9.0
herbicide rating (0-9) [12]: 7.0

Cc1ccc(OC(C)C(=O)OCc2ccco2)c(-c2nsc3ccc(-n4c(=O)cc(C(F)(F)F)n(C)c4=O)cc23)c1 (stereo not drawn) [Compound 79, Furfuryl 2-{{2-{5-[3,6-dihydro-3-methyl-2,6-dioxo-4-(trifluoromethyl)-1(2H)-pyrimidinyl]-1,2-benzisothiazol-3-yl}-p-tolyl}oxy}propionate]
herbicide rating (0-9) [1]: 7.5
herbicide rating (0-9) [2]: 7.0
herbicide rating (0-9) [3]: 9.0
herbicide rating (0-9) [4]: 8.5
herbicide rating (0-9) [5]: 9.0
herbicide rating (0-9) [6]: 9.0
herbicide rating (0-9) [7]: 7.5
herbicide rating (0-9) [8]: 9.0
herbicide rating (0-9) [9]: 9.0
herbicide rating (0-9) [10]: 9.0
herbicide rating (0-9) [11]: 9.0
herbicide rating (0-9) [12]: 7.5

CC#CCOC(=O)C(C)Oc1ccc(C)cc1-c1nsc2ccc(-n3c(=O)cc(C(F)(F)F)n(C)c3=O)cc12 (stereo not drawn) [Compound 80, 2-Butynyl 2-{{2-{5-[3,6-dihydro-3-methyl-2,6-dioxo-4-(trifluoromethyl)-1(2H)-pyrimidinyl]-1,2-benzisothiazol-3-yl}-p-tolyl}oxy}propionate]
herbicide rating (0-9) [1]: 7.5
herbicide rating (0-9) [2]: 7.0
herbicide rating (0-9) [3]: 9.0
herbicide rating (0-9) [4]: 8.0
herbicide rating (0-9) [5]: 9.0
herbicide rating (0-9) [6]: 9.0
herbicide rating (0-9) [7]: 7.5
herbicide rating (0-9) [8]: 9.0
herbicide rating (0-9) [9]: 9.0
herbicide rating (0-9) [10]: 9.0
herbicide rating (0-9) [11]: 9.0
herbicide rating (0-9) [12]: 7.5

Cc1ccc(OC(C)C(=O)OCCCl)c(-c2nsc3ccc(-n4c(=O)cc(C(F)(F)F)n(C)c4=O)cc23)c1 (stereo not drawn) [Compound 81, 2-Chloroethyl 2-{{2-{5-[3,6-dihydro-3-methyl-2,6-dioxo-4-(trifluoromethyl)-1(2H)-pyrimidinyl]-1,2-benzisothiazol-3-yl}-p-tolyl}oxy}propionate]
herbicide rating (0-9) [1]: 8.0
herbicide rating (0-9) [2]: 3.0
herbicide rating (0-9) [3]: 9.0
herbicide rating (0-9) [4]: 8.5
herbicide rating (0-9) [5]: 9.0
herbicide rating (0-9) [6]: 9.0
herbicide rating (0-9) [7]: 7.0
herbicide rating (0-9) [8]: 9.0
herbicide rating (0-9) [9]: 9.0
herbicide rating (0-9) [10]: 9.0
herbicide rating (0-9) [11]: 9.0
herbicide rating (0-9) [12]: 8.0

Cc1ccc(OC(C)C(=O)OC(C)C)c(-c2nsc3ccc(-n4c(=O)cc(C(F)(F)F)n(C)c4=O)cc23)c1 (stereo not drawn) [Compound 82, Isopropyl 2-{{2-{5-[3,6-dihydro-3-methyl-2,6-dioxo-4-(trifluoromethyl)-1(2H)-pyrimidinyl)-1,2-benzisothiazol-3-yl}-p-tolyl}oxy}propionate]
herbicide rating (0-9) [1]: 5.5
herbicide rating (0-9) [2]: 1.0
herbicide rating (0-9) [3]: 9.0
herbicide rating (0-9) [4]: 6.0
herbicide rating (0-9) [5]: 9.0
herbicide rating (0-9) [6]: 4.0
herbicide rating (0-9) [7]: 5.5
herbicide rating (0-9) [8]: 9.0
herbicide rating (0-9) [9]: 6.0
herbicide rating (0-9) [10]: 7.0
herbicide rating (0-9) [11]: 9.0
herbicide rating (0-9) [12]: 5.5

CCC(CC)OC(=O)COc1ccc(C)cc1-c1nsc2ccc(-n3c(=O)cc(C(F)(F)F)n(C)c3=O)cc12 [Compound 83, 1-Ethylpropyl {{2-{5-[3,6-dihydro-3-methyl-2,6-dioxo-4-(trifluoromethyl)-1(2H)-pyrimidinyl)-1,2-benzisothiazol-3-yl}-p-tolyl}oxy}acetate]
herbicide rating (0-9) [1]: 6.0
herbicide rating (0-9) [2]: 3.0
herbicide rating (0-9) [3]: 9.0
herbicide rating (0-9) [4]: 6.5
herbicide rating (0-9) [5]: 9.0
herbicide rating (0-9) [6]: 7.0
herbicide rating (0-9) [7]: 8.0
herbicide rating (0-9) [8]: 9.0
herbicide rating (0-9) [9]: 9.0
herbicide rating (0-9) [10]: 9.0
herbicide rating (0-9) [11]: 9.0
herbicide rating (0-9) [12]: 7.5

Cc1ccc(OCC(=O)OC2CCCC2)c(-c2nsc3ccc(-n4c(=O)cc(C(F)(F)F)n(C)c4=O)cc23)c1 [Compound 84, Cyclopentyl {{2-{5-[3,6-dihydro-3-methyl-2,6-dioxo-4-(trifluoromethyl)-1(2H)-pyrimidinyl)-1,2-benzisothiazol-3-yl}-p-tolyl}oxy}acetate]
herbicide rating (0-9) [1]: 7.5
herbicide rating (0-9) [2]: 4.0
herbicide rating (0-9) [3]: 9.0
herbicide rating (0-9) [4]: 8.0
herbicide rating (0-9) [5]: 9.0
herbicide rating (0-9) [6]: 9.0
herbicide rating (0-9) [7]: 8.0
herbicide rating (0-9) [8]: 9.0
herbicide rating (0-9) [9]: 9.0
herbicide rating (0-9) [10]: 9.0
herbicide rating (0-9) [11]: 9.0
herbicide rating (0-9) [12]: 8.0

Cc1ccc(OCC(=O)OC(C)C(C)(C)C)c(-c2nsc3ccc(-n4c(=O)cc(C(F)(F)F)n(C)c4=O)cc23)c1 (stereo not drawn) [Compound 85, 1,2,2-Trimethylpropyl {{2-{5-[3,6-dihydro-3-methyl-2,6-dioxo-4-(trifluoromethyl)-1(2H)-pyrimidinyl]-1,2-benzisothiazol-3-yl}-p-tolyl}oxy}acetate]
herbicide rating (0-9) [1]: 6.5
herbicide rating (0-9) [2]: 2.0
herbicide rating (0-9) [3]: 5.0
herbicide rating (0-9) [4]: 5.5
herbicide rating (0-9) [5]: 9.0
herbicide rating (0-9) [6]: 5.0
herbicide rating (0-9) [7]: 7.0
herbicide rating (0-9) [8]: 8.0
herbicide rating (0-9) [9]: 2.0
herbicide rating (0-9) [10]: 7.0
herbicide rating (0-9) [11]: 5.0
herbicide rating (0-9) [12]: 5.0

Source: patent US6156700A, “3-(1,2-Benzisothiazol- and isoxazol-5-yl)-2,4(1H,3H)-pyrimidinedione or thione and 3-(1,2-benzisothiazol- and isoxazol-5-yl)-4(3H)-pyrimidinone or thione herbicidal agents” (American Cyanmid Company, priority 1998, dated 2000)
